Data taken from ChEMBL document CHEMBL1799946, “Synthesis and biological evaluation of desmethylveramiline, a micromolar Hedgehog inhibitor” (Bioorg Med Chem Lett, 2011).

Legend:
[1] = biological target: Sonic hedgehog protein (Mus musculus) (UniProt Q62226); experiment: Inhibition of SHH pathway in mouse Shh Light2 cells at 10 uM after 40 hrs by Gli-dependent luciferase reporter gene assay; assay type: functional, cell-based; settings: Shh Light II
Sonic hedgehog protein = Sonic hedgehog protein (Mus musculus, UniProt Q62226); experiment: Inhibition of SHH pathway in mouse Shh Light2 cells after 40 hrs by Gli-dependent luciferase reporter gene assay; assay type: functional, cell-based, Shh Light II
[2] = biological target: Sonic hedgehog protein (Mus musculus) (UniProt Q62226); experiment: Inhibition of SHH pathway in mouse Shh Light2 cells at 0.3 uM after 40 hrs by Gli-dependent luciferase reporter gene assay; assay type: functional, cell-based; settings: Shh Light II
[3] = biological target: Sonic hedgehog protein (Mus musculus) (UniProt Q62226); experiment: Inhibition of SHH pathway in mouse Shh Light2 cells at 3 uM after 40 hrs by Gli-dependent luciferase reporter gene assay; assay type: functional, cell-based; settings: Shh Light II
[4] = biological target: Sonic hedgehog protein (Mus musculus) (UniProt Q62226); experiment: Inhibition of N-terminal SHH activated pathway in mouse C3H10T1/2 cells assessed as SAG-induced cell differentiation at 1 uM by alkaline phosphatase assay; assay type: cell-based; settings: C3H 10T1/2
[5] = biological target: Sonic hedgehog protein (Mus musculus) (UniProt Q62226); experiment: Inhibition of N-terminal SHH activated pathway in mouse C3H10T1/2 cells assessed as SAG-induced cell differentiation at 10 uM by alkaline phosphatase assay; assay type: cell-based; settings: C3H 10T1/2

Chain of Sonic hedgehog protein (Q62226 25-198 limits assumed): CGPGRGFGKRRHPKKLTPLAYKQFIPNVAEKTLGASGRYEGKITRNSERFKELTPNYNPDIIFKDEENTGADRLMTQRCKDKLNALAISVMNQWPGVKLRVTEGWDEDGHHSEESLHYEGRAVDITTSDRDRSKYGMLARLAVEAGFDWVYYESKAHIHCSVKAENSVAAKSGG

Row | SMILES | inhibition [1] [%] | IC50 (Sonic hedgehog protein) [nM] | inhibition [2] [%] | inhibition [3] [%] | inhibition [4] [%] | inhibition [5] [%]
1 | COc1cccc(CN(C(=O)CC(C)(C)C)[C@H]2C[C@@H](C(=O)N3CCNCC3)N(Cc3ccc4c(c3)OCO4)C2)c1 | 92 | 100 | 89 | 97 | 78 | 99
2 | C[C@H]([C@@H]1CCCCN1)[C@H]1CC[C@H]2[C@@H]3CC=C4C[C@@H](O)CC[C@]4(C)[C@H]3CC[C@]12C [DESMETHYLVERAMILINE] | 87 | 1100 | 5 | 47 | 13 | 85
3 | CC1=C2C[C@H]3[C@@H](CC=C4C[C@@H](O)CC[C@@]43C)[C@@H]2CC[C@]12O[C@@H]1C[C@H](C)CN[C@H]1[C@H]2C [CYCLOPAMINE] | 98 | 300 | 58 | 96 | 71 | 105
